{
  "source": "patent US20160289651A1",
  "about": "“ULK1 COMPOSITIONS, INHIBITORS, SCREENING AND METHODS OF USE” (Salk Institute for Biological Studies, priority 2009, published 2016)",
  "key": {"endogenous ULK1 [1]": {"tested_on": "endogenous ULK1", "test": "Immunoblot of endogenous ULK1 P-Ser555 in primary murine embryonic fibroblasts (MEFs)", "assay_type": "cell-based", "details": "wild-type vs AMPK-deficient, 2 mM AICAR for 1 h"}, "endogenous ULK1 [2]": {"tested_on": "endogenous ULK1", "test": "Immunoblot of endogenous ULK1 Ser555 phosphorylation in primary murine hepatocytes", "assay_type": "cell-based", "details": "wild-type vs AMPK-deficient, 2 mM metformin for 2 h", "procedure": "Data shown as mean+/−SEM. * p<0.01 (B) Primary hepatocytes derived from ULK1^+/+ or ULK1^+/− mice or AMPKa1^−/− a2^L/+ or AMPKa1^−/− a2^L/L as described in methods were placed in media containing 2 mM metformin (met) or vehicle (veh) for 2 h. Lysates were immunoblotted with the indicated antibodies.\nPrimary hepatocytes were isolated. Briefly, livers were perfused with Hank's balanced salt solution (HESS, KCI, 5.4 mM; KH2PO4, 0.45 mM; NaCl, 138 mM; NaHCO2, 4.2 mM; Na2HPO4, 0.34 mM; glucose, 5.5 mM; HEPES, 1 M; EGTA, 50 mM; CaCl2, 50 mM; pH 7.4). Livers were washed at a rate of 5 ml/min using the portal vein before collagenase (0.025%) was added. Cell viability was assessed by the trypan blue exclusion test and was always higher than 60%. […]\nCell lysis, immunoprecipitations, and mammalian autophagy analysis. […] Immunoprecipitated proteins were denatured by the addition of 20 pl of sample buffer and boiling for 5 minutes, resolved by 8%-16% SDSPAGE, and analyzed by immunoblottina as described. […] Quantification of westerns blots was achieved using Kodak Multi Gage software and normalizing to the appropriate loading control (actin when comparing p62 or LC3, or total protein level when comparing phospho-specific antibodies). […]"}, "ULK1 [3]": {"tested_on": "ULK1", "test": "Tandem mass spectrometry (LC/MS/MS) of phosphorylation sites on myc-ULK1 from HEK293T cells", "assay_type": "cell-based, human", "method": "FIG. 7A is a diagram of all LC/MS/MS identified in vivo phosphorylation sites in human ULK1. Myc-ULK1 was transfected into human embryonic kidney (HEK)-293T cells, treated with 5 mM phenformin to reduce cellular ATP for 1 hour and immunoprecipitated with anti myc antibody. The IP was run out on SDS PAGE, stained with coomassie, and the band corresponding to myc-ULK1 was cut out, and isolated and subjected to tryptic digest and LC/MS/MS analysis. Three indicated sites matching the AMPK substrate motif were identified, all mapping to the serine-rich unstructured region between the N-terminal kinase domain and the conserved C-terminus that mediates ULK1 binding to its subunits Atg13 and FIP200.\nFIG. 7B is a bar graph of quantitative mass spec spectrometry (MS/MS TIC ratio quantification) data showing that tryptic peptides containing Phospho5er555 and Phospho-5er637 of ULK1 are induced by treatment of HEK293T cells with 5 mM phenformin for 1 h.\nMass Spectrometry. Myc-ULK1 overexpressed in HEK293T cells was treated with vehicle or 5 mM phenformin for 1 hour, IP'd with anti myc antibody (Cell Signaling), run out on SDS-PAGE gel and coomassie stained. […] Peptide ions from AMPK predicted phosphorylation sites were also targeted in MS/MS mode for quantitative analyses. […]\nRelative Quantification of Phosphorylation Sites. […]"}, "ULK1 [4]": {"tested_on": "ULK1", "test": "Immunoblot with phospho-specific antibodies against ULK1 Ser467 and Ser555 in transfected HEK293T cells", "assay_type": "cell-based, human", "details": "HEK293T cells with myc-tagged ULK1, 1 mM phenformin for 1 h vs vehicle", "method": "FIGS. 1A-1F show ULK1 is a conserved substrate of AMPK. (A) Clustal alignment of four conserved sites in ULK1 and two sites in ULK2 matching the optimal AMPK substrate motif. (B) ULK1 and GST or GST-14-3-3 expression vectors were transfected into human embryonic kidney (HEK)293T cells, and placed in media containing […] STO-609 (STO), vehicle (veh), or 5 mM phenformin (Phen) for 1 h. Cell lysates and GST pulldowns were immunoblotted as indicated. […] (D) HEK293T cells transfected with myc-tagged wild-type ULK1 or indicated Serine-to-alanine ULK1 mutants were treated with either vehicle or 1 mM phenformin for 1 h, or were co-transfected with a constitutively active AMPKα1 (aa1-312) mammalian expression vector (11). Proteins from lysates were immunoblotted with phospho-specific antibodies as indicated. […] Phosphorylation of myc-ULK1 detected by immunoblotting with indicated phospho-specific antibodies. […]\nCell lysis, immunoprecipitations, and mammalian autophagy analysis. […] Immunoprecipitated proteins were denatured by the addition of […] of sample buffer and boiling for 5 minutes, resolved by 8%-16% SDSPAGE, and analyzed by immunoblottina as described. […] Quantification of westerns blots was achieved using Kodak Multi Gage software and normalizing to the appropriate loading control (actin when comparing p62 or LC3, or total protein level when comparing phospho-specific antibodies). […]"}, "[5]": {"tested_on": "T1, myc-tagged catalytically inactive (KI: K46I) ULK1", "T1 sequence": "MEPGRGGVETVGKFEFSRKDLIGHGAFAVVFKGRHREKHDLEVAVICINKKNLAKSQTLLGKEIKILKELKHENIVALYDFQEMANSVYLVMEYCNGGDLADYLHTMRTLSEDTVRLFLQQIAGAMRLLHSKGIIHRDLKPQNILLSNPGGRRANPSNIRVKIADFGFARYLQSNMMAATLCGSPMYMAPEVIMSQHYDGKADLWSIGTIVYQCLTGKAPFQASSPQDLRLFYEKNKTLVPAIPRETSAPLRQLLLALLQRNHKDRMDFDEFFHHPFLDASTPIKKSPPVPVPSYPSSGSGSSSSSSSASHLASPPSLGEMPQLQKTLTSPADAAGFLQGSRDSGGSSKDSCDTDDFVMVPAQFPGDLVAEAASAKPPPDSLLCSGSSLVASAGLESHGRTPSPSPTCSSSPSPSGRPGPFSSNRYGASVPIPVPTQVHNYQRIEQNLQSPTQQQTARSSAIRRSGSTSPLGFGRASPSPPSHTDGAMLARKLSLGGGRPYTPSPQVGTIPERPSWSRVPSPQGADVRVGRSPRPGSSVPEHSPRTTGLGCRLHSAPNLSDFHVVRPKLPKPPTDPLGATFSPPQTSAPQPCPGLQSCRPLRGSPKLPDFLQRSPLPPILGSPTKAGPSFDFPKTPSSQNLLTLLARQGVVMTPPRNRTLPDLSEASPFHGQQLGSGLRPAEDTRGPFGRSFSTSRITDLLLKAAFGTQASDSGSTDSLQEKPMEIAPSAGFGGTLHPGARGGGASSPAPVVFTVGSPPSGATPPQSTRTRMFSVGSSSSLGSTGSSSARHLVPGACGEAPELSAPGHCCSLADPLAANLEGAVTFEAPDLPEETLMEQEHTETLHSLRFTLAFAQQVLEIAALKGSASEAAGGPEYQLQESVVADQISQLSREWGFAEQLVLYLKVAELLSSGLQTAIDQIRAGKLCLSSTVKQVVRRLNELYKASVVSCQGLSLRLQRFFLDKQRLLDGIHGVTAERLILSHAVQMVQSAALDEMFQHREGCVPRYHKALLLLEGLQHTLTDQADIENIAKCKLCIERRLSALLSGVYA"}, "[6]": {"biological_target": "myc-tagged wild-type raptor (UniProt Q8N122)", "sequence (Q8N122 whole entry, looked up)": "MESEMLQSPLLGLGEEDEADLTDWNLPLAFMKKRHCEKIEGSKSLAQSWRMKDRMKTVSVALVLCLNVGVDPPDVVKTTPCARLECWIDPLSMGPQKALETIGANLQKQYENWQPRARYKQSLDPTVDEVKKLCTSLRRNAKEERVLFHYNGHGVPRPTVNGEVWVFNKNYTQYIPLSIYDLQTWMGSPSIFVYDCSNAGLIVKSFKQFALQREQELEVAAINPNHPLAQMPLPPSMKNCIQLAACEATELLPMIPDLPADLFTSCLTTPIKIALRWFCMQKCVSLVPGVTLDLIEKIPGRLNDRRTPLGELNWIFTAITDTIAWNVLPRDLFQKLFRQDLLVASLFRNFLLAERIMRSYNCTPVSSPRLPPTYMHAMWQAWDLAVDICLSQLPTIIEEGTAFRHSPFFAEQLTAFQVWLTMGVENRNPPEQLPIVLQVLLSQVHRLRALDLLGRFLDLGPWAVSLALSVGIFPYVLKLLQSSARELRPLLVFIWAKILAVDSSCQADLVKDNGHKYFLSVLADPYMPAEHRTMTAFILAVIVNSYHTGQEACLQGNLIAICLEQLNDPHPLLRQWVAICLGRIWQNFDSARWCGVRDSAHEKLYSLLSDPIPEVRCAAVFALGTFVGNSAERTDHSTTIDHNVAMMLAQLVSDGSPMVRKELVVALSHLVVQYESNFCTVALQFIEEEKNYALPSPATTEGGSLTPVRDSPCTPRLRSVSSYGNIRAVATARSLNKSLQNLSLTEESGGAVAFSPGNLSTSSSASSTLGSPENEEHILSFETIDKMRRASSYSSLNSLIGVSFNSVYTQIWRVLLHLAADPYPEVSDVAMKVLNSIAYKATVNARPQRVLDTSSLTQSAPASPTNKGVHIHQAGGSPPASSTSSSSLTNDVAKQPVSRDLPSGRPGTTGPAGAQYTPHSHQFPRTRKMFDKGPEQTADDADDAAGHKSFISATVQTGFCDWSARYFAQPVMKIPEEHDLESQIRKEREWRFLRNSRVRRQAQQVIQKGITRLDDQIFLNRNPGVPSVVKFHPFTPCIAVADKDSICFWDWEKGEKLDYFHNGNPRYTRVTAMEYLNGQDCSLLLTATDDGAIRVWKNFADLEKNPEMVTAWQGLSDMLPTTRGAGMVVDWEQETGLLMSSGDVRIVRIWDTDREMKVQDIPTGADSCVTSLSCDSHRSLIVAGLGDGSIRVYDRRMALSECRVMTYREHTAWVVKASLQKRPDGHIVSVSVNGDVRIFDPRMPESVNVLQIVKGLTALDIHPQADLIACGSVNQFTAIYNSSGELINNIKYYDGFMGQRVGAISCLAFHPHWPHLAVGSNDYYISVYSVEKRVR"}},
  "note": "Entries after “also recorded” stand apart in the source; their conditions may differ.",
  "data": [
    {"molecule": "NC(=O)c1ncn([C@@H]2O[C@H](CO)[C@@H](O)[C@H]2O)c1N", "note": "[AICAR]", "values": [
      {"measurement": "phosphorylation of endogenous ULK1 on Ser555", "setting": "endogenous ULK1 [1]", "result": "phosphorylation of endogenous ULK1 was observed on Ser555 in an AMPK-dependent manner; also recorded: phosphorylated on Ser555 in an AMPK-dependent manner"}
    ]},
    {"molecule": "CN(C)C(=N)N=C(N)N", "note": "[metformin]", "values": [
      {"measurement": "phosphorylation of endogenous ULK1 Ser555", "setting": "endogenous ULK1 [2]", "result": "Increased phosphorylation of endogenous ULK1 Ser555 was observed in wild-type but not AMPK-deficient hepatocytes"}
    ]},
    {"molecule": "[H]/N=C(/N)N/C(=N/[H])NCCc1ccccc1", "note": "[phenformin]", "values": [
      {"measurement": "tryptic peptides containing Phospho-Ser555 and Phospho-Ser637 of ULK1, quantitative mass spectrometry (MS/MS TIC ratio quantification)", "setting": "ULK1 [3]; 5 mM phenformin for 1 h", "result": "induced"},
      {"measurement": "phosphorylation of ULK1 candidate AMPK sites Ser555, Thr574, Ser637 detected by tandem mass spectrometry", "setting": "ULK1 [3]; epitope-tagged ULK1, with or without 5 mM phenformin for 1 hour", "result": "all three were phosphorylated only after phenformin treatment"},
      {"measurement": "phosphorylation of ULK1 Ser467 and Ser555 (phospho-specific antibodies)", "setting": "ULK1 [4]", "result": "Phosphorylation of both sites was induced"}
    ]},
    {"molecule": "purified active AMPK heterotrimer (partially purified rat liver, Millipore cat #14-305)", "values": [
      {"measurement": "in vitro kinase assay, 32P incorporation", "setting": "[5]", "result": "AMPK phosphorylated ULK1 to a greater extent than an established substrate, Raptor"},
      {"measurement": "in vitro kinase assay, 32P incorporation", "setting": "[6]", "result": "AMPK phosphorylated ULK1 to a greater extent than an established substrate, Raptor"}
    ]}
  ]
}
